Measured values from ChEMBL document CHEMBL1201862, “PubChem BioAssay data set” (2004).
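Dose response: 5 concentrations. Exposure: 48 h. Format: 96-well plates. Endpoint: linear interpolation; highest concentration if not reached. GI50: concentration for 50% inhibition of growth.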 Calls of active or inactive are those of the source. Rule as the data show it: active = GI50 up to about 1.1 µM and inactive = higher.

Tests used:
Experiment in all cases: growth of human tumour cells (NCI), 48 h
SNB-19 = test system: SNB-19
COLO 205 = test system: COLO 205
UACC-62 = test system: UACC-62
HCC 2998 = test system: HCC 2998
MCF7 = test system: MCF7
HOP-62 = test system: HOP-62
A498 = test system: A498
T47D = test system: T47D
PC-3 = test system: PC-3
UO-31 = test system: UO-31
NCI-H23 = test system: NCI-H23
K562 = test system: K562
CAKI-1 = test system: CAKI-1
MOLT-4 = test system: MOLT-4
MDA-MB-231 = test system: MDA-MB-231
LOX IMVI = test system: LOX IMVI
HCT-116 = test system: HCT-116
NCI-H460 = test system: NCI-H460
BT-549 = test system: BT-549
MDA-MB-435 = test system: MDA-MB-435

Measured: GI50

CCN(CC)Cc1nc2sc3c(c2c(=O)n1-c1ccccc1)CCCC3
inactive: SNB-19 35.6 µM | COLO 205 17.7 µM | UACC-62 15.4 µM | HCC 2998 17.6 µM | MCF7 17.5 µM | HOP-62 27.4 µM | A498 15.3 µM | T47D 18.8 µM | PC-3 15.9 µM | UO-31 11.2 µM | NCI-H23 35.1 µM | K562 35.2 µM | CAKI-1 19.7 µM | MOLT-4 17.4 µM | MDA-MB-231 15.3 µM | LOX IMVI 13.8 µM | HCT-116 18.7 µM | NCI-H460 19.6 µM | BT-549 28.3 µM

Cc1ccc(-c2c(C#N)c(-c3ccc([N+](=O)[O-])cc3)c(C#N)c(=O)n2NS(=O)(=O)c2ccc(C)cc2)cc1
inactive: SNB-19 56.6 µM | MDA-MB-435 86.9 µM | COLO 205 80.4 µM | UACC-62 31 µM | HCC 2998 29.4 µM | MCF7 24.9 µM | HOP-62 67.1 µM | A498 67.8 µM | PC-3 42.8 µM | K562 46.2 µM | CAKI-1 50.6 µM | MOLT-4 19.8 µM | MDA-MB-231 61.9 µM | LOX IMVI 33.4 µM | HCT-116 36.6 µM | NCI-H460 39.8 µM | BT-549 16.5 µM

Oc1c(/N=N\c2ccccc2)c2cccc3ccc4cccc1c4c32
inactive: SNB-19 > 100 µM | MDA-MB-435 > 100 µM | COLO 205 > 100 µM | UACC-62 > 100 µM | HOP-62 29.6 µM | A498 > 100 µM | T47D > 100 µM | PC-3 > 100 µM | UO-31 > 100 µM | NCI-H23 > 100 µM | K562 > 100 µM | CAKI-1 > 100 µM | MOLT-4 > 100 µM | MDA-MB-231 94.4 µM | LOX IMVI > 100 µM | HCT-116 > 100 µM | BT-549 > 100 µM

CCCCCCNC(=O)c1cnc(Cl)cn1
inactive: SNB-19 17.5 µM | MDA-MB-435 15.6 µM | COLO 205 18.4 µM | UACC-62 17.2 µM | MCF7 5.15 µM | HOP-62 16.1 µM | T47D 20 µM | PC-3 5.51 µM | UO-31 1.85 µM | NCI-H23 11.1 µM | K562 13 µM | CAKI-1 1.17 µM | MOLT-4 4.82 µM | MDA-MB-231 16.7 µM | LOX IMVI 14.6 µM | HCT-116 17.1 µM | NCI-H460 19.3 µM | BT-549 26.2 µM

CC(=O)N1C(NN(C)C)CCN1c1ccccc1 (centres undefined)
inactive: MDA-MB-435 > 10 µM | COLO 205 > 10 µM | UACC-62 > 10 µM | HCC 2998 > 10 µM | MCF7 > 10 µM | HOP-62 > 10 µM | T47D > 10 µM | PC-3 > 10 µM | NCI-H23 > 10 µM | K562 > 10 µM | CAKI-1 > 10 µM | MOLT-4 > 10 µM | MDA-MB-231 > 10 µM

Cc1ccc(S(=O)(=O)N2c3ccccc3[C@H]3CCC=C[C@H]32)cc1
inactive: SNB-19 25.6 µM | COLO 205 3.94 µM | UACC-62 4.82 µM | HCC 2998 8.11 µM | MCF7 3.81 µM | HOP-62 7.46 µM | A498 6.4 µM | T47D 4.97 µM | PC-3 11.2 µM | UO-31 5 µM | NCI-H23 8.28 µM | K562 3.38 µM | CAKI-1 12.1 µM | MOLT-4 4.81 µM | MDA-MB-231 49.2 µM | LOX IMVI 10.4 µM | HCT-116 5.86 µM | NCI-H460 6.56 µM | BT-549 8.91 µM

O=C1NC(=O)c2ccccc2/C1=C/c1ccc2c(c1)OCO2
inactive: SNB-19 32 µM | MDA-MB-435 18.4 µM | COLO 205 > 10 µM | UACC-62 22.1 µM | HCC 2998 14.6 µM | MCF7 20 µM | HOP-62 11.2 µM | A498 > 100 µM | T47D > 100 µM | UO-31 17.2 µM | NCI-H23 22.3 µM | CAKI-1 24.5 µM | MOLT-4 11.5 µM | MDA-MB-231 12.3 µM | LOX IMVI 20.9 µM | HCT-116 5 µM | BT-549 20.9 µM

COC(=O)[C@](NC(=O)OCc1ccccc1)([C@@H](C)[S+]([O-])c1ccc(C)cc1)C(F)(F)F (some centres undefined)
inactive: SNB-19 43 µM | MDA-MB-435 33.7 µM | COLO 205 25.8 µM | UACC-62 37.3 µM | HCC 2998 32.6 µM | HOP-62 > 100 µM | A498 31.4 µM | T47D 35.8 µM | PC-3 27.9 µM | UO-31 27.7 µM | NCI-H23 32.1 µM | K562 34.4 µM | CAKI-1 41 µM | MOLT-4 18.7 µM | MDA-MB-231 59.6 µM | LOX IMVI 33.7 µM | HCT-116 42.1 µM | NCI-H460 29 µM | BT-549 22.4 µM

CC(C)(NO)/C(=N\O)c1ccccc1
inactive: SNB-19 > 10 µM | MDA-MB-435 > 10 µM | COLO 205 > 10 µM | HCC 2998 > 10 µM | MCF7 > 10 µM | HOP-62 > 10 µM | T47D > 10 µM | PC-3 > 10 µM | UO-31 > 10 µM | NCI-H23 > 10 µM | K562 > 10 µM | CAKI-1 > 10 µM | MOLT-4 > 10 µM | MDA-MB-231 > 10 µM | HCT-116 > 10 µM | NCI-H460 > 10 µM | BT-549 > 10 µM

Clc1ccc(C(c2ccc(Cl)cc2)c2cncnc2)cc1
inactive: SNB-19 18.1 µM | MDA-MB-435 13.7 µM | COLO 205 17.1 µM | UACC-62 15.2 µM | MCF7 15.3 µM | HOP-62 17.2 µM | T47D 16.6 µM | PC-3 14.2 µM | UO-31 11.9 µM | NCI-H23 15.9 µM | K562 21.9 µM | CAKI-1 18.6 µM | MOLT-4 20.6 µM | MDA-MB-231 17.7 µM | LOX IMVI 15.8 µM | HCT-116 13.9 µM | NCI-H460 17.6 µM | BT-549 13.9 µM

c1ccc(Cn2c(-c3ccc(-c4ccccc4)cc3)cc3ccccc32)cc1
inactive: SNB-19 > 100 µM | MDA-MB-435 > 100 µM | COLO 205 > 100 µM | UACC-62 > 100 µM | HCC 2998 > 100 µM | MCF7 > 100 µM | HOP-62 > 100 µM | T47D > 100 µM | PC-3 > 100 µM | UO-31 > 100 µM | NCI-H23 > 100 µM | CAKI-1 > 100 µM | MOLT-4 > 100 µM | MDA-MB-231 > 100 µM | LOX IMVI > 100 µM | HCT-116 > 100 µM | NCI-H460 > 100 µM | BT-549 > 100 µM

Oc1ccc(/C=N/c2nccs2)c(O)c1
inactive: SNB-19 > 100 µM | COLO 205 33.3 µM | UACC-62 > 100 µM | HCC 2998 30.2 µM | MCF7 64 µM | HOP-62 > 100 µM | PC-3 > 100 µM | UO-31 > 100 µM | NCI-H23 > 100 µM | CAKI-1 > 100 µM | MDA-MB-231 > 100 µM | LOX IMVI > 100 µM | HCT-116 > 100 µM | NCI-H460 > 100 µM | BT-549 > 100 µM

CCC(=O)Nc1ccc(N2C(=O)C(Cl)C2c2ccc(SC)cc2)cc1 (centres undefined)
inactive: SNB-19 > 100 µM | MDA-MB-435 63.7 µM | COLO 205 40.4 µM | UACC-62 > 100 µM | HCC 2998 30.9 µM | MCF7 56.2 µM | HOP-62 61.7 µM | A498 > 100 µM | T47D 73.6 µM | PC-3 > 100 µM | UO-31 > 100 µM | NCI-H23 > 100 µM | K562 72.9 µM | CAKI-1 > 100 µM | MOLT-4 67.8 µM | LOX IMVI 40.1 µM | HCT-116 > 100 µM | NCI-H460 32.8 µM | BT-549 > 100 µM

N#CCN(CC#N)C1CC=CCC1N(CC#N)CC#N (centres undefined)
inactive: SNB-19 > 100 µM | MDA-MB-435 > 100 µM | COLO 205 > 100 µM | UACC-62 > 100 µM | MCF7 > 100 µM | HOP-62 > 100 µM | T47D > 100 µM | PC-3 > 100 µM | UO-31 > 100 µM | NCI-H23 > 100 µM | K562 > 100 µM | CAKI-1 > 100 µM | MOLT-4 > 100 µM | MDA-MB-231 > 100 µM | LOX IMVI > 100 µM | HCT-116 > 100 µM | NCI-H460 > 100 µM | BT-549 > 100 µM

C#CCNC(=O)NC(CCCCNC(=O)OCc1ccccc1)C(=O)OCc1ccccc1 (centres undefined)
inactive: SNB-19 > 100 µM | MDA-MB-435 22.8 µM | COLO 205 21.7 µM | UACC-62 12.7 µM | HCC 2998 31.5 µM | MCF7 > 100 µM | HOP-62 > 100 µM | A498 21.9 µM | PC-3 > 67 µM | UO-31 21.6 µM | NCI-H23 76.2 µM | K562 53.6 µM | CAKI-1 > 74 µM | MOLT-4 31 µM | MDA-MB-231 > 39.2 µM | LOX IMVI 33.7 µM | HCT-116 > 100 µM | NCI-H460 93.5 µM | BT-549 > 100 µM

CCc1n[nH]c(=O)n1O
inactive: SNB-19 > 100 µM | MDA-MB-435 > 100 µM | COLO 205 > 100 µM | UACC-62 > 100 µM | MCF7 > 100 µM | HOP-62 > 100 µM | A498 > 100 µM | T47D > 100 µM | UO-31 > 100 µM | NCI-H23 > 100 µM | K562 > 100 µM | CAKI-1 > 100 µM | MOLT-4 > 100 µM | MDA-MB-231 > 100 µM | HCT-116 > 100 µM | BT-549 > 100 µM
